Measured values from patent US20240139176A1, “METHODS OF TREATING OR PREVENTING CACHEXIA” (Toray Industries, Inc., priority 2019, published 2024).
Structures can show the parent of a compound that is named as a salt.

What was measured:
[1] = tested on: tumor-bearing mouse model (non-small cell lung cancer model having ghrelin resistance), A549 cells planted into nude mice; experiment: Food intake and body weight in tumor-bearing mouse model (non-small cell lung cancer model having ghrelin resistance), dosing from Day 43 after A549 plantation; assay type: in vivo; settings: oral daily for 28 days (Day 43 to Day 70), Compound 1 0.25 mg/kg, anamorelin hydrochloride 30 mg/kg, combined 0.25 + 30 mg/kg, Dunnett's test P<0.05; for cumulative food intake in the period of administration, compared to distilled water-treated group: FIG. 1; for body weight after 28-day administration, compared to distilled water-treated group: FIG. 2
Experimental: Using tumor-bearing model animals where human alveolar basement epidermal gland cancer cells, A549 cells, were planted into nude mice, examination was performed about drug efficacy on the food intake and the body weight when Compound 1 and anamorelin hydrochloride (MedChemExpress LLC) were combined.
Subculture of A549 cells was performed using a 10% FBS-containing RPMI1640 culture medium. In evaluation of drug efficacy, 7-week old female BALB/C slc/nu/nu mice (Japan SLC, Inc.) were purchased, and used after habituated for one week. Tumor-bearing model animals were prepared as follows. Specifically, 2.5×10^7 cells of A549 cells were planted to the right abdominal of each mouse by subdermal administration. On Day 41 from the cell plantation, the mice were divided into groups to have an equal averaged tumor volume.
The effects of a variety of compounds on food intake and body weight were examined as follows. Specifically, for 28 days from Day 43 to Day 70 from the cell plantation, the compounds were orally administered daily, and the food intake and the body weight were measured at the same time. For the doses of the compounds, the dose of Compound 1 was 0.25 mg/kg (9 examples), and that of anamorelin hydrochloride was 30 mg/kg (9 examples). In combined administration of Compound 1 and anamorelin hydrochloride, 0.25 mg/kg of Compound 1 and 30 mg/kg of anamorelin hydrochloride were used, where Compound 1 and anamorelin hydrochloride preliminarily dissolved in distilled water mixed for preparation (9 examples). As a control, distilled water was administered in the same manner (9 examples). The food intake was calculated by subtracting the weight of the lid of each single cage containing food on the previous day from the weight of the lid of the single cage containing food on the day of measurement.
In FIG. 1, the ordinate represents the cumulative food intake in the period of administration of the compounds (from the start of administration to the day next to the final day of administration). In FIG. 2, the ordinate represents the body weight on Day 29 from the start of administration of the compounds (the day next to the final day of administration) (after 28-day administration). In the abscissas of FIGS. 1 and 2, “Distilled water” represents distilled water-treated group, “Compound 1” represents Compound 1-treated group, “Anamorelin” represents anamorelin hydrochloride-treated group, and “Combined administration” represents Compound 1 and anamorelin hydrochloride-combined treatment group. In FIGS. 1 and 2, the mark “*” represents a statistical significance (*: P<0.05) compared to distilled water-treated group (Dunnett's multiple test).

[2] = tested on: tumor-bearing mouse model (non-small cell lung cancer model), A549 cells planted to nude mice; experiment: Food intake and body weight in tumor-bearing mouse model (non-small cell lung cancer model), dosing from Day 23 after A549 plantation; assay type: in vivo; settings: oral daily for 28 days (Day 23 to Day 50), Compound 1 0.25 mg/kg, anamorelin hydrochloride 30 mg/kg, combined 0.25 + 30 mg/kg, Dunnett's test P<0.05; for cumulative food intake in the period of administration, compared to distilled water-treated group: FIG. 3; for body weight after 28-day administration, compared to distilled water-treated group: FIG. 4
Experimental: Using tumor-bearing model animals where human alveolar basement epidermal gland cancer cells, A549 cells, were planted to nude mice, examination was performed about the drug efficacy on the food intake and body weight when Compound 1 and anamorelin hydrochloride were combined.
Subculture of A549 cells was performed using a 10% FBS-containing RPMI1640 culture medium. In evaluation of drug efficacy, 7-week old female BALB/C slc/nu/nu mice (Japan SLC, Inc.) were purchased, and used after habituated for one week. Cancer-bearing model animals were prepared as follows. Specifically, 2.5×10^7 cells of A549 cells were planted to the right abdominal of each mouse by subdermal administration. On Day 22 from the cell plantation, the mice were divided into groups to have an equal averaged tumor volume.
The effects of a variety of compounds on food intake and body weight were examined as follows. Specifically, for 28 days from Day 23 to Day 50 from the cell plantation, the compounds were orally administered daily, and the food intake and the body weight measured at the same time. For the doses of the compounds, the dose of Compound 1 was 0.25 mg/kg (13 examples), and the dose of anamorelin hydrochloride was 30 mg/kg (13 examples). In combined administration of Compound 1 and anamorelin hydrochloride, 0.25 mg/kg of Compound 1 and 30 mg/kg of anamorelin hydrochloride were used, where Compound 1 and anamorelin hydrochloride preliminarily dissolved in distilled water were mixed for preparation (13 examples). As a control, distilled water was administered in the same manner (13 examples). The food intake was calculated by subtracting the weight of the lid of each single cage containing food on the previous day from the weight of the lid of the single cage containing food on the day of measurement.
In FIG. 3, the ordinate represents the cumulative food intake in the period of administration of the compounds (from the start of administration to the day next to the final day of administration). In FIG. 4, the ordinate represents the body weight on Day 29 from the start of administration of the compounds (the day next to the final day of administration) (after 28-day administration). In the abscissas of FIGS. 3 and 4, “Distilled water” represents distilled water-treated group, “Compound 1” represents Compound 1-treated group, “Anamorelin” represents anamorelin hydrochloride-treated group, and “Combined administration” represents Compound 1 and anamorelin hydrochloride combined-treatment group. In FIGS. 3 and 4, the mark “*” represents a statistical significance (*: P<0.05) compared to distilled water-treated group (Dunnett's multiple test).

[3] = tested on: tumor-bearing mouse model (skin cancer model), B16/F10 cells planted to mice; experiment: Food intake and body weight in tumor-bearing mouse model (skin cancer model), B16/F10 cells; assay type: in vivo; settings: oral daily for 11 days (Day 5 to Day 15), Compound 1 0.05 mg/kg, anamorelin hydrochloride 30 mg/kg, combined 0.05 + 30 mg/kg; for cumulative food intake in the period of administration, compared to distilled water-treated group: Dunnett's test P<0.05, FIG. 5; for body weight after 11-day administration, compared to distilled water-treated group: FIG. 6
Experimental: Using tumor-bearing model animals where mouse malignant melanoma cells, B16/F10 cells, were planted to mice, and examination performed about the drug efficacy to the food intake and the body weight when Compound 1 and anamorelin hydrochloride were combined.
Subculture of B16/F10 cells was performed using a DMEM culture medium containing 10% FBS and penicillin-streptomycin. In evaluation of the drug efficacy, 6-weeks old female C57BL/6J mice (Charles River Laboratories, Japan, Inc.) when introduced were used after habituated for one week. The tumor-bearing model animals were prepared as follows. Specifically, 5×10^6 cells of B16/F10 cells were planted to the right abdominal of each mouse by subdermal administration. On Day 5 from the cell plantation, the mice were divided into groups to have an equal averaged tumor volume.
The effects of a variety of compounds on food intake and body weight were examined as follows. Specifically, for 11 days from Day 5 to Day 15 from the cell plantation, the compounds were orally administered daily, and the food intake and the body weight measured at the same time. For the doses of the compounds, the dose of Compound 1 was 0.05 mg/kg (8 examples), and that of anamorelin hydrochloride was 30 mg/kg (8 examples). In combined administration of Compound 1 and anamorelin hydrochloride, 0.05 mg/kg of Compound 1 and 30 mg/kg of anamorelin hydrochloride were used, where Compound 1 and anamorelin hydrochloride preliminarily dissolved in distilled water were mixed for preparation (8 examples). As a control, distilled water was administered in the same manner (8 examples). The food intake was calculated by subtracting the weight of the lid of each single cage containing food on the previous day from the weight of the lid of the single cage containing food on the day of measurement. Eight individuals of each group were divided into two cases, in each of which 4 individuals were raised. The food intake per one mouse was calculated by dividing the total food intake of the 2 cases by 8.
In FIG. 5, the ordinate represents the cumulative food intake in the period of administration of the compounds (from the start of administration to the day next to the final day of administration). In FIG. 6, the ordinate represents the body weight on Day 12 from the start of administration of the compounds (the day next to the final day of administration) (after 11-day administration). In the abscissas in FIGS. 5 and 6, “Distilled water” represents distilled water-treated group, “Compound 1” represents Compound 1-treated group, “Anamorelin” represents anamorelin hydrochloride-treated group, and “Combined administration” represents Compound 1 and anamorelin hydrochloride-combined treatment group. […]

[4] = third phase clinical trials; cited from earlier work

Structure (SMILES) | cumulative food intake in the period of administration, compared to distilled water-treated group [1] | body weight after 28-day administration, compared to distilled water-treated group [1] | cumulative food intake in the period of administration, compared to distilled water-treated group [2] | body weight after 28-day administration, compared to distilled water-treated group [2] | cumulative food intake in the period of administration, compared to distilled water-treated group [3] | body weight after 11-day administration, compared to distilled water-treated group [3] | lean body mass [4]
CN(C)N(C)C(=O)[C@@]1(Cc2ccccc2)CCCN(C(=O)[C@@H](Cc2c[nH]c3ccccc23)NC(=O)C(C)(C)N)C1 [anamorelin hydrochloride, 2-amino-N-[(1R)-2-[(3R)-3-benzyl-3-(N,N′,N′-trimethylhydrazinocarbonyl)piperidin-1-yl-]-1-(1H-indol-3-ylmethyl)-2-oxoethyl]-2-methylpropionamide] | any statistically significant increase of food intake was not observed | any statistically significant increase in body weight was not observed | a tendency of increasing food intake was observed | statistically significant increase of body weight was exhibited | any statistically significant increase food intake was not observed | a tendency of increasing body weight was not exhibited | significantly increases lean body mass
CN(C(=O)/C=C/c1ccoc1)[C@@H]1CC[C@@]2(O)[C@H]3Cc4ccc(O)c5c4[C@@]2(CCN3CC2CC2)[C@H]1O5 [Compound 1, (−)-17-(cyclopropylmethyl)-3,14β-dihydroxy-4,5α-epoxy-6β-[N-methyl-trans-3-(3-furyl)acrylamide]morphinanhydrochloride] | any statistically significant increase of food intake was not observed | any statistically significant increase in body weight was not observed | statistically significant increase of food intake was exhibited | statistically significant increase of body weight was exhibited | any statistically significant increase food intake was not observed | a tendency of increasing body weight was not exhibited | 
